Data taken from patent US10188629B2, “Prodrug of green tea epigallocatechin-3-gallate (pro-EGCG) for use in the treatment of endometriosis” (The Hong Kong Polytechnic University, priority 2012, dated 2019).

Key:
[1] = test system: human prostate, breast, leukemic, and simian virus 40-transformed cells; conditions: cited from earlier work
[2] = test system: cancer cells; conditions: cited from earlier work
[3] = test system: ovarian follicles, endometrial glands, ovarian and endometrial stroma microvessels; assay: Reproductive effects on eutopic endometrium and ovaries (H&E, CD34 immunostaining); format: in vivo, mice; conditions: H&E staining after 4-week intervention
Method: Reproductive effects of EGCG and pro-EGCG on the endometrium and ovaries of each animal were also examined. After the 4-week intervention, the uterine horns and ovaries (n=8 per group) were removed and fixed for histological examination and angiogenesis immunostaining as described above. Endometrial glands, ovarian follicles and vascularization in endometrial and ovarian stroma were assessed.

[4] = Oxygen radical absorbance capacity (ORAC) in plasma and lesions; format: in vivo, mice; conditions: for ORAC in endometriotic lesions compared between treatment groups / ORAC in endometriotic lesions compared to saline group: lesions after intervention; for ORAC in plasma compared between treatment groups / ORAC in plasma compared to saline group: plasma during intervention
From the text: Pharmacokinetics of EGCG and pro-EGCG in the animals were studied by measuring the corresponding EGCG and pro-EGCG concentrations (EGCG in the EGCG group, pro-EGCG in the pro-EGCG group) in plasma during the intervention and also in lesions at the end of intervention. EGCG and pro-EGCG were quantified by analytical methods as previously described (Lam W H, et al. Bioorg Med Chem. 2004; 510:69-93; Chu K O, et al. J Chromat B 2004; 810:187-95; Chu K O, et al. Anal Chim Acta 2004; 510:69-76). Anti-oxidative and anti-angiogenesis capacities of the samples were also studied by measuring oxygen radical absorbance capacity (ORAC) using a modified phycoerythrin fluorescence decay assay as previously described (Wang C C, et al. Clin Chem 2004; 50:952-4), and vascular endothelial growth factor (VEGF) concentrations were measured using a commercial ELISA kit (Uscn Life Science Inc., TX) according to the manufacturer's manual. Blood samples (n=8 per group) were collected from the tail vein once per week, and plasma was prepared by immediate centrifugation. Implants without subcutaneous and muscle layers (n=4 per group) were removed from the abdominal wall, and the endometriotic lesions were frozen. All of the samples were kept in −80° C. prior to analysis.

[5] = test system: microvessels in the endometriotic lesions; assay: Angiogenesis of endometriotic lesions by Cellvizio, microCT and CD31/αSMA immunostaining; format: in vivo, mice; conditions: after 4 weeks; for functional capillary length, density and area in the lesions compared to saline group / total vessel area in the lesions compared to saline group / total vessel length in the lesions compared to saline group / lesion neovascularization: Cellvizio; for functional capillary length, density and area in the lesions compared to saline group / total vessel area in the lesions compared to saline group / total vessel length in the lesions compared to saline group: FITC-Dextran; for lesion neovascularization / vessel volume and density in the lesions compared to saline group: microCT; for lesion neovascularization: CD31 and αSMA staining; for CD31-positively and αSMA-negatively stained new microvessel numbers compared to saline group / CD31-positively and αSMA-positively stained old microvessel numbers compared to saline group: immunostaining; for vessel volume and density in the lesions compared to saline group: Microfil
Method: At the end of intervention, functional angiogenesis of the endometriotic lesions (n=8 per group) was monitored by measuring the flow of fluorescence dye in the new microvessels developed in the implants using a Cellvizio® LAB LSU-488 system with a ProFlex Microprobe S1500 (Mauna Kea Technologies, Paris) as previously described (Xu H, et al. Fertil Steril 2011; 96:1021-8.). A total of 10 mg/ml of FITC-Dextran was injected intravenously into each mouse prior to imaging. Total vessel length (μm) and area (μm^2) and functional capillary length (μm^−1) and area density were measured using Cellvizio® LAB Vessel Detection software, and averaged from 4 perpendicular regions of the lesions in replicates. At the same time, apoptotic cells in the lesions were captured by Cellvizio-LAB 488 with a ProFlex MiniO/100 microprobe using Cellvizio® LAB I/C Viewer software (Mauna Kea Technologies). A total of 10 μl of 10 μM YO-PRO®-1 iodide in DSMO was injected into the lesion area.
After live animal imaging, structural angiogenesis in the endometriotic lesions (n=4 per group) was further examined by detecting the Microfil in the new microvessels developed in the implants using a VivaCT 40 μCT system (Scanco Medical, Switzerland) as previously described (Sun M H, et al. J Orthop Res. 2012; 30:137-43.). The mice were sacrificed by cervical dislocation and where immediately perfused with 4% paraformaldehyde and Microfil MV-120 Blue. Three-dimensional microvessel architecture was constructed, and absolute and relative Microfil-filled microvessel volumes were determined using the built-in software.
Paraffin sections (n=4 per group) were prepared for standard hematoxylin and eosin (H&E) staining, angiogenesis immunostaining and TUNEL staining as previously described (Xu H, et al. Hum Reprod 2009; 24:608-18.). Immunohistochemistry staining of in situ angiogenesis was performed by the immunoperoxidase method using a MACH 3 HRP Polymer Kit (Biocare Medical, Concord), and counterstained using methyl green or blue solution.
Antibodies against mouse CD31 and alpha-smooth muscle actin (αSMA) (Abcam Inc., MA) were used to double fluorescence stain the microvessels developed in the endometriotic lesions, and CD34 (Abeam Inc.) was used to stain the microvessels in the ovaries and uterus. The samples without primary antibodies served as negative controls. The total number of positively stained new and old microvessels in the lesions was counted, respectively. The mean microvessel numbers and sizes were calculated from 5 separated sections from each animal within the treatment group and are presented as numbers per lesion and μm^2 per lesion, respectively.

[6] = General tolerability and body weight during the intervention; conditions: i.p. once per day, 4 weeks; EGCG, pro-EGCG 50 mg/kg, vitamin E 20 mg/kg
Method: Immediately after the transplantation, the mice were randomly assigned to receive either vehicle (n=8; sham control), vitamin E (n=8; anti-oxidant control, 20 mg/kg), EGCG (n=8; anti-angiogenesis control, 50 mg/kg, ≈1.5 mg/30 g) or pro-EGCG (n=8; 50 mg/kg).
Dulbecco's phosphate-buffered saline (PBS, Sigma) was used as solvent to dissolve the drugs. These doses were selected because their significant an angiogenic and anti-oxidative effects have been reported in mice (Sang S, et al. Chem Res Toxicol 2005; 18:1762-9; Villayandre B M, et al. Brain Research 2004; 1028, 148-55). The treatments were administered once per day via intraperitoneal injections for a consecutive 4-week period.

[7] = cited from earlier work

Row | Structure (SMILES) | potency in inhibition of proliferation and transforming activity and induction of apoptosis, compared with EGCG [1] | cell death induction [2] | proteasome inhibition [2] | effects on ovarian follicles [3] | effects on uterine endometrial glands [3] | ORAC in endometriotic lesions compared between treatment groups [4] | ORAC in endometriotic lesions compared to saline group [4] | ORAC in plasma compared between treatment groups [4] | ORAC in plasma compared to saline group [4] | functional capillary length, density and area in the lesions compared to saline group [5] | total vessel area in the lesions compared to saline group [5] | total vessel length in the lesions compared to saline group [5] | lesion neovascularization [5] | all of the microvessel parameters compared with EGCG group ([5]; 50 mg/kg i.p.) | CD31-positively and αSMA-negatively stained new microvessel numbers compared to saline group [5] | CD31-positively and αSMA-positively stained old microvessel numbers compared to saline group [5] | vessel volume and density in the lesions compared to saline group [5] | signs of stress, intolerance or toxic responses to administration [6] | bioavailability [7] | stability under physiological conditions ([7]; physiological conditions)
1 | CC(=O)Oc1cc(OC(C)=O)c2c(c1)O[C@H](c1cc(OC(C)=O)c(OC(C)=O)c(OC(C)=O)c1)[C@H](OC(=O)c1cc(OC(C)=O)c(OC(C)=O)c(OC(C)=O)c1)C2 [pro-EGCG, (−)-EGCG octaacetate] | much higher potency than EGCG | cell death induction | exhibited proteasome inhibition | not affected | not affected | significantly higher than in the EGCG and vitamin E groups | significantly increased | significantly higher than in the EGCG and vitamin E groups | significantly increased | significantly inhibited | significantly inhibited | significantly inhibited | poorly developed | significantly lower than those in the EGCG group | significantly inhibited | significantly inhibited | significantly inhibited | – | – | –
2 | O=C(O[C@@H]1Cc2c(O)cc(O)cc2O[C@@H]1c1cc(O)c(O)c(O)c1)c1cc(O)c(O)c(O)c1 [EGCG, (−)-epigallocatechin-3-gallate] | – | – | – | not affected | not affected | not significantly different from the vitamin E group | significantly increased | not significantly different from the vitamin E group | significantly increased | significantly inhibited | significantly inhibited | significantly inhibited | poorly developed | – | significantly inhibited | significantly inhibited | significantly inhibited | No signs of stress, intolerance to anesthesia, surgery or implantation or any toxic responses | poor bioavailablity | notably unstable
